Experiments:
Saccharomyces cervisiae = assay: yeast growth inhibition; format: cell-based; settings: FIG. 6
Protocol: This assay measures anti-yeast and anti-fungal activity of the drugs tested.
Some of the inventive compounds are effective for inhibiting yeast cell growth. This effect can be assayed by measuring growth of the yeast strain Saccharomyces cervisiae. A control yeast stain Saccharomyces cervisiae (BIO 101, Inc.) is grown overnight in YEPD broth at 30° C. An one to hundred dilution of the yeast culture is made with fresh YEPD broth. 100 μl Aliquots of the diluted culture are distributed into 96-wells titer plates. 100 μl Aliquots of drug is diluted in YEPD broth were then added to the wells. The titer plates are incubated at room temperature with continuous shaking. The cell density of the individual cultures are determined using a mircoplate reader with a A630 filter. The A630 of the individual yeast cultures are compared to control samples without adding drug. This assay is predictive of direct antimicrobial, particularly yeast and fungal, activity of the drugs studied.
This example illustrates the effects of CT2501R (a reference compound), CT1529, CT1589 and CT1519 (see Table 1 for chemical names) on yeast growth (Saccharomyces cervisiae) in the presence or absence of drug. This assays measures anti-yeast and anti-fungal activity of the drugs tested.

[1] = system: transformed cells (Ras 3T3) and normal 3T3 cells; assay: cytotoxicity in transformed and normal 3T3 cells; format: cell-based
Protocol: A similar experiment is shown in FIG. 9 for five inventive compounds (see Table 1 […] for chemical names) showing differential cytotoxicity for the same normal and transformed cells.
Each inventive compound is investigated for cytotoxicity to determine appropriate doses for biological activity assays and to prevent cytotoxic reactions in in vitro assays when characterizing activity. Cells (e.g., NIH-3T3, Ras transformed 3T3 cells, malignant melanoma LD2 cells, etc.) are added to microtiter plates and drug is added about two days after plating. Cell viability is determined using a fluorescent viability stain (e.g., 2',7'-bis-(2-carboroxyethyl)-5-(and -6)-carboxyfluorescein acetoxymethyl ester, BCECF excitation 488 nm and emission 525 nm) 24, 48 or 72 hours after addition of the drug.
This example illustrates a comparison of cytotoxicity determinations for CT1595 in transformed cells (Ras 3T3) and in normal 3T3 cells at drug doses of 1, 10 and 100 μM in in vitro cell culture conditions (FIG. 8). […] A similar experiment is shown in FIG. 9 for five inventive compounds (see Table 1 above for chemical names) showing differential cytotoxicity for the same normal and transformed cells.

## Cn1cnc2c1c(=O)n(CCCCC(=O)CCl)c(=O)n2C [CT1595, 1-(6-chloro-5-oxohexyl)-3,7-dimethylxanthine]
Saccharomyces cervisiae
  yeast growth inhibition: strongly inhibited yeast growth
[1]; FIG. 8, 1, 10 and 100 μM
  differential cytotoxicity, transformed vs normal 3T3 cells: more cytotoxic for the cancer cell than the normal cell
[1]; FIG. 9, five compounds
  cytotoxic activity, normal and transformed 3T3 cells: significant cytotoxic activity

Reference: patent publication US5670506A, “Halogen, isothiocyanate or azide substituted xanthines” (Cell Therapeutics, Inc., priority 1993, dated 1997)
